Laboratory results: ChEMBL document CHEMBL1130556, “Synthesis and activity of brefeldin a analogs as inducers of cancer cell differentiation and apoptosis” (Bioorg Med Chem Lett, 1997)

Key:
Assay type in all cases: functional, cell-based
Settings in all cases: Homo sapiens
[1] = system: HCT-116; test: Effect on apoptotic DNA fragmentation to differentitiate HCT 116 cells, at a concentration of 3.5 uM, 1.0 ug/ml was determined; - = Not potent
[2] = system: HCT-116; test: Effect on apoptotic DNA fragmentation to differentitiate HCT 116 cells, at a concentration of 3.6 uM, 1.0 ug/ml was determined; - = Non potent
[3] = system: HCT-116; test: Effect on apoptotic DNA fragmentation to differentitiate HCT 116 cells, at a concentration of 3.4 uM, 1.0 ug/ml was determined; - = Not potent
[4] = system: HCT-116; test: Effect on apoptotic DNA fragmentation to differentitiate HCT 116 cells, at a concentration of 6.4 uM, 2.0 ug/ml was determined; - = Not potent
[5] = system: HCT-116; test: Effect on apoptotic DNA fragmentation to differentitiate HCT 116 cells, at a concentration of 0.11 uM, 0.03 ug/ml was determined; + = Potent
[6] = system: HCT-116; test: Effect on apoptotic DNA fragmentation to differentitiate HCT 116 cells, at a concentration of 5.2 uM, 2.0 ug/ml was determined; - = Not potent
[7] = system: HCT-116; test: Effect on apoptotic DNA fragmentation to differentitiate HCT 116 cells, at a concentration of 0.85 uM, 0.25 ug/ml was determined; - = Not potent
[8] = system: HCT-116; test: Effect on apoptotic DNA fragmentation to differentitiate HCT 116 cells, at a concentration of 4.1 uM, 1.2 ug/ml was determined; + = Potent
[9] = system: HCT-116; test: Effect on apoptotic DNA fragmentation to differentitiate HCT 116 cells, at a concentration of 0.27 uM, 0.1 ug/ml was determined; + = Potent
[10] = system: HCT-116; test: Effect on apoptotic DNA fragmentation to differentitiate HCT 116 cells, at a concentration of 3.2 uM, 1.0 ug/ml was determined; - = Not potent
[11] = system: HCT-116; test: Effect on apoptotic DNA fragmentation to differentitiate HCT 116 cells, at a concentration of 1.6 uM, 0.5 ug/ml was determined; + = Potent
[12] = system: HCT-116; test: Effect on apoptotic DNA fragmentation to differentitiate HCT 116 cells, at a concentration of 0.16 uM, […] was determined; + = Potent

`C[C@H]1CCCCC[C@@H]2C[C@H](O)C[C@H]2[C@H](O)CCC(=O)O1` was tested, and the DNA fragmentation [1] was “Not potent”.

With `C[C@H]1CCC/C=C\[C@@H]2CC(=O)C[C@H]2[C@H](O)/C=C/C(=O)O1` the DNA fragmentation [2] was “Non potent”.

With `C[C@@H](O)CCC/C=C\[C@@H]1C[C@H](O)C[C@H]1[C@H](O)/C=C/C(=O)O` the DNA fragmentation [3] was “Not potent”.

In the case of `COC(=O)/C=C/[C@@H](O)[C@@H]1C[C@@H](O)C[C@H]1/C=C\CCC[C@@H](C)O`, the DNA fragmentation [4] is reported as “Not potent”.

With `C[C@H]1CCC/C=C\[C@@H]2C[C@H](O)C[C@H]2[C@H](O)/C=C/C(=O)O1` the DNA fragmentation [5] was “Potent”.

With `C[C@@H](O)CCC/C=C\[C@@H]1C[C@H](O)C[C@H]1[C@H](O)/C=C/C(=O)OCc1ccccc1` the DNA fragmentation [6] was “Not potent”.

With `CO[C@@H]1/C=C/C(=O)O[C@@H](C)CCC/C=C\[C@@H]2C[C@H](O)C[C@H]21` the DNA fragmentation [7] was “Not potent”.

For `C[C@H]1CCC[C@@H]2O[C@@H]2[C@@H]2C[C@H](O)C[C@H]2[C@H](O)/C=C/C(=O)O1`, the DNA fragmentation [8] was “Potent”.

`C[C@H]1CCC/C=C\[C@@H]2CC(=O)C[C@H]2C(=O)CCC(=O)O1` was tested, and the DNA fragmentation [2] was “Non potent”.

With `CC(=O)O[C@@H]1C[C@@H]2[C@H](/C=C\CCC[C@H](C)OC(=O)/C=C/[C@H]2OC(C)=O)C1` the DNA fragmentation [9] was “Potent”.

For `CO[C@@H]1C[C@@H]2[C@H](/C=C\CCC[C@H](C)OC(=O)/C=C/[C@H]2OC)C1`, the DNA fragmentation [10] was “Not potent”.

In the case of `CC(=O)O[C@@H]1/C=C/C(=O)O[C@@H](C)CCC/C=C\[C@@H]2C[C@H](O)C[C@H]21`, the DNA fragmentation [11] is reported as “Potent”.

In the case of `CC(=O)O[C@@H]1C[C@H]2[C@H](O)/C=C/C(=O)O[C@@H](C)CCC/C=C\[C@@H]2C1`, the DNA fragmentation [12] is reported as “Potent”.
